Converted amounts (≈) assume the structure as drawn. “And” between values parts separate entries of the source, which are not always exact repeats. Equal values may be shown once. Read-outs that look alike come from different tables or passages of the source.

We go through seven compounds from paper PMC6312359, “Diisopropylphenyl-imidazole (DII): A new compound that exerts anthelmintic activity through novel molecular mechanisms” (PLoS Neglected Tropical Diseases, 2018).

Assay [1] concerns Escherichia coli ATCC 25922. The assay is described as follows: Minimum inhibitory and bactericidal concentrations, microdilution. It is filed as cell-based. Conditions: 24 h at 37°C; for MBC / MIC: Escherichia coli, ATCC25922. Here is the method: (§1) The strains used in this study were Escherichia coli ATCC 25922 and Staphylococcus aureus ATCC 25923, kindly provided by Dr. Ziegler (Bacillus Genetic Stock Center, The Ohio State University). Stocks were stored in Mueller Hinton Broth (MHB, Biokar Diagnostics, France) supplemented with glycerol 20% at -70°C. Before running each test, the strains were incubated for 48 h at 37°C in MHB. Finally, the bacterial strains were sub-cultured in MHB at 37°C for 24 h. The solutions of antimicrobial agents and imidazolium salts were prepared following the Clinical and Laboratory Standards Institute (CLSI) guidelines for determination of Minimum Inhibitory Concentrations by the microdilution method (CLSI 2009). […] Cultures were incubated as described above and adjusted to OD625nm ~ 0.08–0.13 by the direct colony suspension method in saline water and finally adjusted to 2–8 10^5 CFU/ml by diluting 1:150 in MHB before testing. A volume of 100 μl of each sample dilution in saline water was transferred to the microplate well. Finally, an equal volume of the inoculum was added. The MIC was the lowest concentration at which there was no visible growth when compared with controls after 24 h at 37°C. To assess the minimum bactericidal concentration (MBC), 20 μl aliquots were taken from the wells where no visible growth was observed, seeded on petri dishes and covered with MH agar (MHA) at 45°C. The compounds were considered bactericidal at the concentration at which no visible colony was observed on the plate after 24 h at 37°C. All conditions were run at least in duplicate. The results were obtained from at least 3 independent experiments.

Assay [2] concerns Staphylococcus aureus ATCC 25923. Described as above. It is filed as cell-based. Conditions: ATCC25923, 24 h at 37°C; for MBC: read-out: MBC S. aureus; for MIC: read-out: MIC S. aureus. How it is done: as §1
Assay [3] concerns C. elegans. The assay is described as follows: Screening imidazole compounds: worm survival. In kind it is in vivo, Caenorhabditis elegans. Conditions: 150 μg/ml, 72 h, 20°C, young adult wild-type worms, liquid medium (S-Basal) with E. coli OP50. Here is the method: 100–150 young adult wild-type worms were exposed to these compounds (150 μg/ml) in liquid medium (S-Basal) containing E. coli OP50. Micromolar concentrations for each compound are: 487 μM for 1, 428 μM for 2, 410 μM for 3, 375 μM for 4, 789 μM for 5, 735 μM for 6, 389 μM for 7, 319 μM for 8, 263 μM for 9, 806 μM for 10 and 657 μM for 11. Compounds were dissolved in water or DMSO according to their solubility. After 72 h, animal survival was analyzed. An animal was considered dead if it made no movement in response to gentle prodding with a worm pick. At least three independent experiments were analyzed.
We exposed 100–150 young adult worms to these compounds in liquid medium (S-Basal) containing the bacteria E. coli OP50 as a food source. After 72 h at 20°C, we analyzed worm survival (Fig 1B). […] The drug concentration chosen for this screening was 150 μg/ml, which is similar to those used in other screening studies. The corresponding molar concentration for each compound is detailed in Materials and Methods. Depending on their solubility properties, the compounds were dissolved either in water or DMSO (up to 0.75% final concentration).

For the next assay, the system named is E. coli OP50. The assay is described as follows: OP50 growth in screening wells (qualitative). In kind it is cell-based, Escherichia coli. Conditions: 150 μg/ml, qualitative observation. The source says: During the screening assays, we qualitatively noticed that OP50 growth was inhibited in wells containing MI. This effect was not observed with DII. To quantify this observation, we determined minimum inhibitory concentration (MIC) and minimum bactericidal concentration (MBC) of both compounds in E. coli cultures (Fig 2A). […] Similar values were obtained when we performed these assays on S. aureus, a Gram-positive bacteria (Fig 2A). […] As we are here screening for specific anthelmintic activity, we restricted our further analysis to compounds that appear to exert nematicidal action without obvious lethal effects on other organisms. Therefore, we focused our studies only on DII, relegating the evaluation of MI as a potential anthelmintic drug.

Assay [4] deals with C. elegans. Details: method as in PMID 21195075, PMID 23869246. Particulars: 24 h, even at millimolar concentrations, ref [39], [41]; cited from earlier work.
In assay [5] the test system is C. elegans. The assay is described as follows: Body length measurements. In kind it is in vivo, Caenorhabditis elegans. Conditions: 600 μM, 2 h. How it is done:
Vehicle (0.75% DMSO) was used as a control. After 2 h, images were acquired and body length was measured using FIJI-ImageJ software. At least three independent experiments were analyzed.

Assay [6] concerns C. elegans. Description: Worm cut preparation paralysis. Particulars: 10 min; DII 600 μM, levamisole 10 μM. In kind it is in vivo, Caenorhabditis elegans. Here is the method:
Cutworm assays were performed as previously described with slight modifications. Briefly, synchronized young adult animals were mounted in a glass microscope slide containing Artificial Perienteric Fluid (APF) (67 mM NaCl, 67 mM NaCH3COOH, 3 mM KCl, 15.7 mM MgCl2, 3 mM CaCl2 and 5 mM Tris, pH 7.6). 10 animals were severed between the middle and tail, approximately two-thirds from the anterior end. Worms were subsequently transferred to a multi-well plate containing APF or drug-APF and paralysis was evaluated after 10 minutes. All experiments were performed at least three times.

Assay [7] has as its system C. elegans. Description: Egg-laying assays. In kind it is in vivo, Caenorhabditis elegans. Conditions: gravid worms. How it is done:
Age-synchronized gravid worms were transferred to solid NGM plates containing different drug concentrations (100–300 μM). Each concentration was evaluated in triplicate and DMSO was used as a control. After 1 h, the number of laid eggs per worm was counted. This experiment was independently repeated three times.

Assay [8] has as its system C. elegans. The assay is described as follows: Acute paralysis assays. It is filed as in vivo, Caenorhabditis elegans. Here is the method:
Acute paralysis assays were carried out in microtiter plates containing the drug dissolved in M9 buffer. […] Each drug concentration was tested in two wells (containing 30 animals each) within a single experiment. […] The experiment was independently repeated at least three times.

Turning to `Cc1cc(C)c(-n2ccnc2)c(C)c1` [Compound 10, mesityl-imidazole], the “MIC E. coli” value in [1] (listed as MI (10)) worked out at 128 µg/mL (≈ 687 µM). Further, in assay [1], the MBC was greater than 256 µg/mL; the MIC was 128 µg/mL and 680 µM. Further, in [2], the MBC was greater than 256 µg/mL and the minimal inhibitory concentration (MIC) was determined as 128 µg/mL (≈ 687 µM). In the assay with C. elegans [3], this compound had a worm death of 100%. Further, the “OP50 growth in screening wells” value with E. coli OP50 was “inhibited”.

Regarding `CN1CCCN=C1/C=C/c1cccs1` [pyrantel], the C. elegans death entry in the assay on C. elegans [4] is listed as “less than 25%”.

Turning to `CCCSc1ccc2nc(NC(=O)OC)[nH]c2c1` [albendazole], the C. elegans death entry in the assay with C. elegans [4] is reported as “less than 25%”.

For `CC(=O)Oc1ccccc1C(=O)Nc1ncc([N+](=O)[O-])s1` [nitazoxanide], the C. elegans death result in the assay on C. elegans [4] was “less than 25%”.

Regarding ivermectin, in the assay on C. elegans [4], the C. elegans death result is on record as “less than 25%”.

As for `O=C(O)c1cn(C2CC2)c2cc(N3CCNCC3)c(F)cc2c1=O` [cipro., ciprofloxacin, reference compound], in [1], the minimal bactericidal concentration (MBC) was found to be 1 µg/mL (≈ 3.02 µM) and the MIC was 0.25 µg/mL (≈ 0.754 µM). For the same compound, in [2], the MBC was determined as 1 µg/mL (≈ 3.02 µM) and the MIC stood at 0.5 µg/mL (≈ 1.51 µM).

As to `c1ccc([C@H]2CN3CCSC3=N2)cc1` [levamisole], the body length result in the assay with C. elegans [5] is listed as “worm shrinkage”. Further, the “paralysis in cut specimens” value in the assay on C. elegans [6] is “paralysis is achieved at very low levamisole concentrations”. In addition, the results for the “laid eggs in 1 h, fold more than controls” value in the assay with C. elegans [7] (100 μM) and with C. elegans [7] (300 μM) were 3.8 fold and 3.2 fold, respectively. Besides, the “paralysis in CB407 unc-49(e407)III hypersensitive strain” value in the assay on C. elegans [8] (100 μM, 10 min) is “hypersensitive”. Besides, the paralyzed animals with C. elegans [8] (600 μM, 10 min) is listed as 100%. For the same compound, the EC50 came to 63.6 µM in the assay with C. elegans [8] (10 min, L4 wild-type, Fig 4B, read-out: EC50 acute paralysis); 60 ± 1.12 µM in the assay on C. elegans [8] (Caenorhabditis elegans, 10 min, Fig 4E black circle (probably levamisole alone), 10 min, read-out: EC50 levamisole paralysis); 66 ± 1.15 µM in the assay with C. elegans [8] (Caenorhabditis elegans, 10 min, Fig 4E dark pink triangle up (constant DII, probably 100 μM), 10 min, read-out: EC50 levamisole paralysis in presence of DII); 62.2 ± 1.14 µM in the assay on C. elegans [8] (Caenorhabditis elegans, 10 min, Fig 4E light pink triangle down (constant DII, probably 200 μM), 10 min, read-out: EC50 levamisole paralysis in presence of DII); 63.6 ± 1.1 µM in the assay on C. elegans [8] (Caenorhabditis elegans, 10 min, L4 wild-type, Fig 4B, read-out: EC50 acute paralysis); 82.2 ± 1.39 µM in the assay with C. elegans [8] (Caenorhabditis elegans, 24 h, S5D Fig pink triangle (probably DII 100 μM for 24 h and during assay), read-out: EC50 levamisole paralysis after DII pre-exposure). Also, the EC50 with C. elegans [8] (Caenorhabditis elegans, S5D Fig black circle (probably control without DII), read-out: EC50 levamisole paralysis) came out at 82.4 ± 1.23 µM.
